Patent US4647672A, “Ascorbate 2-polyphosphate esters and method of making same” (priority 1985, dated 1987)
Read-outs that look alike come from different tables or passages of the source.

Experiments:
monkeys = conditions: Machlin et al; cited from earlier work
guinea pigs [1] = conditions: Machlin 1976; cited from earlier work
fish = fish and possibly crustacea; Halver et al 1975; cited from earlier work
in vitro [2] = assay type: in vitro ADME, potato; conditions: potato, ph 5.0 acetate buffer, pH 5
Method: (§1) It has also been confirmed that behavior of the 2-monophosphate ester of L-ascorbate, ASMP, towards the enzyme phosphatase is different than the behavior of the 2-triphopsphate ester, ASTP.
(§2) ^1 Enzymolysis was done at 25° by stirring 200 micromoles of
(§3) magnesium Lascorbate 2phosphate or ammonium Lascorbate 2triphosphate in
(§4) 100 ml of 0.05 M acetate buffer (pH 5.0) containing about 400 mg of
(§5) bakers' compressed yeast and 2 units of phosphatase (1 unit activity
(§6) hydrolyzes 1 μmole of pnitrophenyl phosphate at pH 4.8 and 37°)
(§7) At a given reaction time, an aliquot (5 ml) was removed, mixed with 5.0 m
(§8) of 12% trichloroacetic acid/4% metaphosphoric acid, and the mixture
(§9) filtered. An aliquot (5 ml) of the filtrate was titrated with
(§10) 2,6dichlorophenolindophenol to a pink endpoint. Blank solutions contained
(§11) all reagents except phosphatase.

[3] = system: Acid Phosphatase from Potato; assay: in vitro; assay type: in vitro ADME
Method: as §1, §2, §3, §4, §5, §6, §7, §8, §9, §10, §11

[4] = Blank reactions without phosphatase: acid-catalyzed release of L-ascorbate in pH 5.0 acetate buffer; assay type: physicochemical; conditions: 0.05 m acetate buffer, 25°, read-out: L-Ascorbate Released (%), Blank; for degraded at 0.25 h: reaction time 0.25 h; for degraded at 0.5 h: reaction time 0.50 h; for degraded at 1 h: reaction time 1.0 h; for degraded at 2 h: reaction time 2.0 h; for degraded at 3 h: reaction time 3.0 h; for degraded at 4 h: reaction time 4.0 h; for degraded at 8 h: reaction time 8.0 h; for degraded at 20 h: reaction time 20.0 h; for degraded at 5 h: reaction time 5.0 h
in vitro [5] = assay type: in vitro ADME, wheat; conditions: wheat, wheat flour suspension, pH 5
Method: (§12) When stirred with a dilute suspension of wheat flour at 25° C., ASMP was comletely hydrolyzed in 1 hr. whereas ASTP required approximately 10-20 hr. for 95% hydrolysis.
(§13) ^1 Enzymolysis and titration of Lascorbate released were done as
(§14) described in the footnote to Table I, except the phosphatase was that
(§15) present in wheat flour. Two grams of wheat flour was used in the 100 ml
(§16) enzymolysis reaction mixture.

[6] = system: phosphatase present in wheat flour; assay: in vitro; assay type: in vitro ADME
Method: as §12, §13, §14, §15, §16

physchem = assay type: physicochemical; conditions: for Stability (% Remaining) when reacted with aqueous hydrogen peroxide / remaining at 0.25 h / remaining at 1 h / remaining at 24 h / remaining at 72 h / remaining at 144 h / remaining at 192 h / remaining at 336 h: tris buffer, hydrogen peroxide; for Stability (% Remaining) when reacted with aqueous hydrogen peroxide: pH 7; for remaining at 0.25 h / remaining at 1 h / remaining at 24 h / remaining at 72 h / remaining at 144 h / remaining at 192 h / remaining at 336 h: pH 7, Stability (% Remaining) when reacted with aqueous hydrogen peroxide
Method: When ASTP and ASMP were treated under identical conditions (pH 7, 25° C.) with hydrogen peroxide for 8 days, 77% ASTP remained unreacted while 44% ASMP remained. After 14 days oxidation, 0% ASMP remained compared to 55% ASTP.
^1 Reaction mixture contained 0.05 mL of 30% aqueous hydrogen peroxid
and 200 micromoles of Lascorbate or its 2phosphorylated derivative in 100
ml of 0.05 TRIS buffer (pH 7.0). At a given reaction time, an aliquot (1
ml) of a reaction mixture containing the 2phosphorylated ester was dilute
10 fold with TRIS buffer at pH 7, and the uv absorbance of the mixture
read at 258 nm. To follow loss of Lascorbic acid, an aliquot (1 ml) of th
reaction mixture was diluted with 2% metaphosphoric acid, and the uv
absorbance read at 245 nm.

[7] = Stabilization of L-ascorbate against autoxidation in aqueous medium at pH 7; assay type: physicochemical
guinea pigs [8] = assay: Guinea pig feeding study of vitamin C activity; assay type: in vivo; conditions: 15.4 mg per kg of body weight per day orally, equivalent to 5.0 mg of L-ascorbic acid
Method: English short-hair guinea pigs were housed individually in a cage and fed Purina guinea pig ration during a one-week acclimation period. The young pigs (190-250 g) were divided into four groups of 10 animals each. One group was fed a diet devoid of vitamin C (Reid-Briggs guinea pig diet, U.S. Biochemicals, Cleveland, Ohio); the second group received the same diet but supplemented with 5.0 mg of L-ascorbic acid per kg of body weight per day; the third group received 15.4 mg of purified tetrasodium L-ascorbate 2-triphosphate dihydrate (L-ascorbate 2-tri-PO4, purified) per kg of body weight per day; and the fourth group received 15.4 mg of tetra-sodium L-ascorbate 2-triphosphate dihydrate (L-ascorbate 2-tri-PO4, reaction mixture) in admixture with the by-products of the reaction mixture as set forth in Example I, except the small amount of unreacted L-ascorbic acid in the reaction mixture was destroyed by O2 -oxidation (the 15.4 mg of tetrasodium L-ascorbate 2-triphosphate dihydrate is equivalent to 5.0 mg of L-ascorbic acid). The vitamin C was administered orally with a calibrated syringe from solutions kept at 5° C., except the L-ascorbic acid solution was prepared fresh daily. The weights of the animals were recorded daily, and the arithmetic means of each group were calculated and compared in the FIGURE.

[9] = pH 5, Table I, all reagents except phosphatase
[10] = pH 5, Table II, blank without phosphatase (wheat flour)

In the case of `O=C1O[C@H]([C@@H](O)CO)C(O)=C1OS(=O)(=O)O` [2-sulfate ester], the “vitamin C activity” value (monkeys) is given as “not an active source of vitamin C”, the “vitamin C activity” value (guinea pigs [1]) is given as “not an active source of vitamin C” and the “vitamin C activity” value (fish) is given as “it is in fish”.
Work on `O=C1O[C@H]([C@@H](O)CO)C(O)=C1OP(=O)(O)O` [ASMP, L-Ascorbate 2-phosphate] yielded a metabolised at 0.25 h (in vitro [2]) of 9.3%, a metabolised at 0.5 h (in vitro [2]) of 18.6% and a metabolised at 1 h (in vitro [2]) of 35.5%. The metabolised at 2 h (in vitro [2]) was 60.5%, the metabolised at 3 h (in vitro [2]) was 77.3% and the metabolised at 4 h (in vitro [2]) was 88.4%. For the same compound, the metabolised at 8 h (in vitro [2]) was 100%, the metabolised at 20 h (in vitro [2]) was 100% and the “rate of release of L-ascorbic acid when treated with purified phosphatase from potato (comparison in words)” value [3] was “much faster than ASTP”. The degraded at 0.25 h [4, 9] was 0%, the degraded at 0.5 h [4, 9] was 0% and the degraded at 1 h [4, 9] was 0%. The degraded at 2 h [4, 9] was 2.9%, the degraded at 3 h [4, 9] was 4.6% and the degraded at 4 h [4, 9] was 4.6%. It also gave a degraded at 8 h [4, 9] of 8.1%, a degraded at 20 h [4, 9] of about 15% and a degraded at 0.25 h [4, 10] of 0%. The degraded at 0.5 h [4, 10] was 0%, the degraded at 1 h [4, 10] was 0% and the degraded at 2 h [4, 10] was 2.9%. It also gave a degraded at 3 h [4, 10] of 4.6%, a degraded at 4 h [4, 10] of 4.6% and a degraded at 5 h [4, 10] of 5.8%. For the same compound, the degraded at 20 h [4, 10] was 14.5%, the metabolised at 0.25 h (in vitro [5]) was 47.1% and the metabolised at 0.5 h (in vitro [5]) was 76.2%. For the same compound, the metabolised at 1 h (in vitro [5]) was 100%, the metabolised at 2 h (in vitro [5]) was 100% and the metabolised at 3 h (in vitro [5]) was 100%. For the same compound, the metabolised at 4 h (in vitro [5]) was 100%, the metabolised at 5 h (in vitro [5]) was 100% and the metabolised at 20 h (in vitro [5]) was 100%. For the same compound, the “time to complete hydrolysis” value [6] was 1 h, the “Stability (% Remaining) when reacted with aqueous hydrogen peroxide” value (physchem; 192 h) was 44.1% and the remaining at 0.25 h (physchem) was 98.7%. For the same compound, the remaining at 1 h (physchem) was 97.1%, the remaining at 24 h (physchem) was 93.9% and the remaining at 72 h (physchem) was 77.7%. The remaining at 144 h (physchem) was 64.1%, the remaining at 192 h (physchem) was 44% and the remaining at 336 h (physchem) was 0%.
Compound `O=C1O[C@H]([C@@H](O)CO)C(O)=C1OP(=O)(O)OP(=O)(O)OP(=O)(O)O` [ASTP, L-ascorbate 2-triphosphate] has a metabolised at 0.25 h (in vitro [2]) of 0%, a metabolised at 0.5 h (in vitro [2]) of 0% and a metabolised at 1 h (in vitro [2]) of 0%. The metabolised at 2 h (in vitro [2]) was 0%, the metabolised at 3 h (in vitro [2]) was 0.4% and the metabolised at 4 h (in vitro [2]) was 0.8%. For the same compound, the metabolised at 8 h (in vitro [2]) was 3.5%, the metabolised at 20 h (in vitro [2]) was 8.5% and the degraded at 0.25 h [4, 9] was 0%. It also gave a degraded at 0.5 h [4, 9] of 0%, a degraded at 1 h [4, 9] of 0% and a degraded at 2 h [4, 9] of 0%. It also gave a degraded at 3 h [4, 9] of 0%, a degraded at 4 h [4, 9] of 0% and a degraded at 8 h [4, 9] of 0%. It also gave a degraded at 20 h [4, 9] of 0%, a degraded at 0.25 h [4, 10] of 0% and a degraded at 0.5 h [4, 10] of 0%. It also gave a degraded at 1 h [4, 10] of 0%, a degraded at 2 h [4, 10] of 0% and a degraded at 3 h [4, 10] of 0%. For the same compound, the degraded at 4 h [4, 10] was 0%, the degraded at 5 h [4, 10] was 0% and the degraded at 20 h [4, 10] was 0%. The metabolised at 0.25 h (in vitro [5]) was 0%, the metabolised at 0.5 h (in vitro [5]) was 1.2% and the metabolised at 1 h (in vitro [5]) was 3.5%. The metabolised at 2 h (in vitro [5]) was 29.6%, the metabolised at 3 h (in vitro [5]) was 65.8% and the metabolised at 4 h (in vitro [5]) was 86.9%. The metabolised at 5 h (in vitro [5]) was 93.1%, the metabolised at 20 h (in vitro [5]) was 95% and the “time required for 95% hydrolysis” value [6] was 10 to 20 h. The “stability to oxidation compared with ASMP” value (physchem) was “more stable to oxidation than ASMP”, the “Stability (% Remaining) when reacted with aqueous hydrogen peroxide” value (physchem; 336 h) was 55.2% and the remaining at 0.25 h (physchem) was 98.6%. The remaining at 1 h (physchem) was 98.3%, the remaining at 24 h (physchem) was 96.7% and the remaining at 72 h (physchem) was 87.6%. For the same compound, the remaining at 144 h (physchem) was 83.3%, the remaining at 192 h (physchem) was 77% and the remaining at 336 h (physchem) was 55%. For the same compound, the “stabilization of L-ascorbate against autoxidation by the substance” value [7] was “L-ascorbate is stabilized against autoxidation by ASTP”.
In the case of `O.O.O=C1O[C@H]([C@@H](O)CO)C([O-])=C1OP(=O)([O-])OP(=O)([O-])OP(=O)([O-])O.[Na+].[Na+].[Na+].[Na+]` [L-ascorbate 2-tri-PO4, purified, tetrasodium L-ascorbate 2-triphosphate dihydrate], the “growth rate (mean body weight) compared with group fed equivalent L-ascorbic acid” value (guinea pigs [8]) is reported as “grew at a rate equal to that of the group fed an equivalent amount of L-ascorbic acid”.
In the case of `O=C1O[C@H]([C@@H](O)CO)C(O)=C1O` [Parent Compd, L-ascorbic acid], the “time to destruction by hydrogen peroxide” value (physchem; pH 7, 25° C.) is reported as “destroyed in less than one hour”, the remaining at 0.25 h (physchem) is reported as 56.9% and the remaining at 1 h (physchem) is reported as 0%. For the same compound, the remaining at 24 h (physchem) was 0%, the remaining at 72 h (physchem) was 0% and the remaining at 144 h (physchem) was 0%. The remaining at 192 h (physchem) was 0% and the remaining at 336 h (physchem) was 0%.
